Laboratory results taken from ChEMBL document CHEMBL1201862, “PubChem BioAssay data set” (2004).
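A five-concentration, 48-hour dose response in 96-well plates underlies each endpoint, interpolated linearly between surrounding concentrations. Here, GI50 denotes the concentration required for 50% inhibition of growth.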 Activity calls are given as the source filed them. Cut-off read from the data, not from the text of the source: active = GI50 up to about 1.1 µM and inactive = higher.

Legend:
Assay in all cases: DTP human tumour cell line panel, 48 h
[1] = test system: MDA-MB-435
[2] = test system: SF-268
[3] = test system: NCI-H226
[4] = test system: T47D
[5] = test system: HCC 2998
[6] = test system: SNB-19
[7] = test system: COLO 205
[8] = test system: UACC-257
[9] = test system: UACC-62
[10] = test system: SN12C
[11] = test system: NCI-H460
[12] = test system: LOX IMVI
[13] = test system: BT-549
[14] = test system: OVCAR-8
[15] = test system: SW-620
[16] = test system: TK-10
[17] = test system: KM12
[18] = test system: MCF7
[19] = test system: NCI/ADR-RES
[20] = test system: CCRF-CEM
[21] = test system: A549
[22] = test system: MDA-N
[23] = test system: HCT-116
[24] = test system: CAKI-1
[25] = test system: OVCAR-3
[26] = test system: NCI-H23
[27] = test system: 786-0
[28] = test system: HT-29
[29] = test system: UO-31
[30] = test system: IGROV-1
[31] = test system: MOLT-4
[32] = test system: SK-MEL-5
[33] = test system: MDA-MB-231
[34] = test system: U-251
[35] = test system: SR
[36] = test system: EKVX
[37] = test system: OVCAR-4
[38] = test system: OVCAR-5
[39] = test system: Malme-3M
[40] = test system: ACHN
[41] = test system: RPMI-8226
[42] = test system: M14
[43] = test system: HL-60
[44] = test system: DU-145
[45] = test system: SK-OV-3
[46] = test system: NCI-H522
[47] = test system: HCT-15
[48] = test system: A498
[49] = test system: RXF 393
[50] = test system: SF-539
[51] = test system: SK-MEL-28
[52] = test system: SF-295
[53] = test system: K562
[54] = test system: SK-MEL-2
[55] = test system: PC-3
[56] = test system: Hs-578T
[57] = test system: SNB-75
[58] = test system: HOP-92
[59] = test system: HOP-62

With `COc1cc(-c2nc3cc(F)ccc3s2)ccc1O` the GI50 [1] was > 100 µM (inactive), the GI50 [2] was 41.4 µM (inactive) and the GI50 [3] was 26.4 µM (inactive). The GI50 [4] was 0.286 µM (active), the GI50 [5] was 0.0622 µM (active) and the GI50 [6] was 83.2 µM (inactive). For the same compound, the GI50 [7] was 16.4 µM (inactive), the GI50 [8] was 19 µM (inactive) and the GI50 [9] was 36.6 µM (inactive). The GI50 [10] was 85.1 µM (inactive), the GI50 [11] was 70.5 µM (inactive) and the GI50 [12] was 39.1 µM (inactive). The GI50 [13] was 20.6 µM (inactive), the GI50 [14] was > 100 µM (inactive) and the GI50 [15] was > 100 µM (inactive). The GI50 [16] was 33.7 µM (inactive), the GI50 [17] was 18.6 µM (inactive) and the GI50 [18] was 4.61 µM (inactive). The GI50 [19] was 78.9 µM (inactive), the GI50 [20] was 28.8 µM (inactive) and the GI50 [21] was 67.5 µM (inactive). The GI50 [22] was 99.3 µM (inactive), the GI50 [23] was 62.7 µM (inactive) and the GI50 [24] was 28.2 µM (inactive). The GI50 [25] was 12.8 µM (inactive), the GI50 [26] was 42.2 µM (inactive) and the GI50 [27] was 37.1 µM (inactive). The GI50 [28] was 39.3 µM (inactive), the GI50 [29] was 34.8 µM (inactive) and the GI50 [30] was 10.9 µM (inactive). For the same compound, the GI50 [31] was 56.8 µM (inactive), the GI50 [32] was 12.1 µM (inactive) and the GI50 [33] was 34.2 µM (inactive). For the same compound, the GI50 [34] was 54.1 µM (inactive), the GI50 [35] was 29.7 µM (inactive) and the GI50 [36] was 5.73 µM (inactive). The GI50 [37] was 21.9 µM (inactive), the GI50 [38] was > 100 µM (inactive) and the GI50 [39] was 78.9 µM (inactive). For the same compound, the GI50 [40] was 89.5 µM (inactive), the GI50 [41] was 41.1 µM (inactive) and the GI50 [42] was 58.3 µM (inactive). The GI50 [43] was 41 µM (inactive), the GI50 [44] was 82.8 µM (inactive) and the GI50 [45] was 35.2 µM (inactive). For the same compound, the GI50 [46] was 19.5 µM (inactive), the GI50 [47] was 11.7 µM and the GI50 [48] was 18.5 µM (inactive). For the same compound, the GI50 [49] was > 100 µM (inactive), the GI50 [50] was 49.4 µM (inactive) and the GI50 [51] was 33.8 µM (inactive). For the same compound, the GI50 [52] was 43.7 µM (inactive), the GI50 [53] was 82.8 µM (inactive) and the GI50 [54] was > 100 µM (inactive). For the same compound, the GI50 [55] was 49 µM (inactive).
For `COc1ccc(C(=O)/C=C/S/C(=N/C#N)SC)cc1`, the GI50 [1] was 21.5 µM (inactive), the GI50 [2] was 25.8 µM (inactive) and the GI50 [3] was 16.5 µM (inactive). For the same compound, the GI50 [4] was 20.7 µM (inactive), the GI50 [6] was 19.5 µM (inactive) and the GI50 [7] was 19.7 µM (inactive). For the same compound, the GI50 [8] was 20.4 µM (inactive), the GI50 [9] was 20 µM (inactive) and the GI50 [10] was 24.4 µM (inactive). The GI50 [11] was > 100 µM (inactive), the GI50 [14] was 21 µM (inactive) and the GI50 [15] was 16.8 µM (inactive). For the same compound, the GI50 [16] was 20.8 µM (inactive), the GI50 [17] was 25.9 µM (inactive) and the GI50 [18] was 18.4 µM (inactive). For the same compound, the GI50 [19] was 21.3 µM (inactive), the GI50 [56] was 30.9 µM (inactive) and the GI50 [21] was > 100 µM (inactive). The GI50 [23] was 14.9 µM (inactive), the GI50 [24] was 22.9 µM (inactive) and the GI50 [25] was 16.4 µM (inactive). For the same compound, the GI50 [26] was 16.9 µM (inactive), the GI50 [27] was 19 µM (inactive) and the GI50 [28] was 19.8 µM (inactive). The GI50 [29] was 17.9 µM (inactive), the GI50 [30] was 21.8 µM (inactive) and the GI50 [31] was 5.77 µM (inactive). For the same compound, the GI50 [32] was 21.8 µM (inactive), the GI50 [33] was 13.7 µM (inactive) and the GI50 [34] was 16.9 µM (inactive). For the same compound, the GI50 [35] was 3.95 µM (inactive), the GI50 [36] was 35.3 µM (inactive) and the GI50 [37] was 58.9 µM (inactive). For the same compound, the GI50 [38] was 24 µM (inactive), the GI50 [39] was 24.5 µM (inactive) and the GI50 [40] was 20.4 µM (inactive). The GI50 [41] was 4.33 µM (inactive), the GI50 [42] was 18.3 µM (inactive) and the GI50 [57] was 27.9 µM (inactive). For the same compound, the GI50 [58] was 65.5 µM (inactive), the GI50 [43] was 16.6 µM (inactive) and the GI50 [44] was 21.7 µM (inactive). The GI50 [45] was 26.2 µM (inactive), the GI50 [46] was 18.2 µM (inactive) and the GI50 [47] was 13.8 µM. For the same compound, the GI50 [48] was 24.5 µM (inactive), the GI50 [49] was 18.2 µM (inactive) and the GI50 [50] was 20 µM (inactive). For the same compound, the GI50 [59] was 24.3 µM (inactive), the GI50 [51] was 30.2 µM (inactive) and the GI50 [52] was 28 µM (inactive). For the same compound, the GI50 [53] was 10.7 µM (inactive), the GI50 [54] was 20.5 µM (inactive) and the GI50 [55] was 33.8 µM (inactive).
`COc1ccc(-c2nc(-c3cnccn3)n(Cc3ccccc3)n2)cc1` was tested, and the GI50 [1] was > 100 µM (inactive), the GI50 [2] was > 100 µM (inactive) and the GI50 [4] was > 100 µM (inactive). The GI50 [5] was > 100 µM (inactive), the GI50 [6] was > 100 µM (inactive) and the GI50 [7] was > 100 µM (inactive). The GI50 [8] was > 100 µM (inactive), the GI50 [9] was > 100 µM (inactive) and the GI50 [10] was > 100 µM (inactive). For the same compound, the GI50 [11] was > 100 µM (inactive), the GI50 [12] was > 100 µM (inactive) and the GI50 [13] was > 100 µM (inactive). The GI50 [14] was > 100 µM (inactive), the GI50 [15] was > 100 µM (inactive) and the GI50 [17] was > 100 µM (inactive). The GI50 [18] was > 100 µM (inactive), the GI50 [19] was > 100 µM (inactive) and the GI50 [20] was > 100 µM (inactive). For the same compound, the GI50 [21] was > 100 µM (inactive), the GI50 [22] was > 100 µM (inactive) and the GI50 [23] was > 100 µM (inactive). The GI50 [25] was > 100 µM (inactive), the GI50 [26] was > 100 µM (inactive) and the GI50 [27] was > 100 µM (inactive). For the same compound, the GI50 [28] was > 100 µM (inactive), the GI50 [29] was > 100 µM (inactive) and the GI50 [30] was > 100 µM (inactive). For the same compound, the GI50 [31] was > 100 µM (inactive), the GI50 [32] was > 100 µM (inactive) and the GI50 [33] was > 100 µM (inactive). For the same compound, the GI50 [34] was > 100 µM (inactive), the GI50 [35] was > 100 µM (inactive) and the GI50 [37] was > 100 µM (inactive). The GI50 [38] was > 100 µM (inactive), the GI50 [41] was > 100 µM (inactive) and the GI50 [42] was > 100 µM (inactive). For the same compound, the GI50 [57] was 47.9 µM (inactive), the GI50 [58] was > 100 µM (inactive) and the GI50 [43] was > 100 µM (inactive). For the same compound, the GI50 [44] was > 100 µM (inactive), the GI50 [45] was > 100 µM (inactive) and the GI50 [46] was > 100 µM (inactive). For the same compound, the GI50 [47] was > 100 µM, the GI50 [49] was > 100 µM (inactive) and the GI50 [50] was > 100 µM (inactive). For the same compound, the GI50 [59] was > 100 µM (inactive), the GI50 [51] was > 100 µM (inactive) and the GI50 [52] was > 100 µM (inactive). The GI50 [53] was > 100 µM (inactive) and the GI50 [55] was > 100 µM (inactive).
